Source: patent EP4285895A1, “NITROFURANTOIN ORAL DOSAGE FORM” (Adalvo Limited, priority 2022, dated 2023)
Values after ≈ are worked out from the molar mass of the structure shown.

Assay: physchem

solubility (0.01N HCl, simulated gastric fluid): 140 µg/mL (≈ 588 µM)
solubility (0.1N HCl, simulated gastric fluid): 140 µg/mL (≈ 588 µM)
solubility (acetate buffer, pH 4.5, aqueous buffer): 50 µg/mL (≈ 210 µM)
solubility (phosphate buffer, pH 6.8, aqueous buffer): 200 µg/mL (≈ 840 µM)
solubility (phosphate buffer, pH 7.5, aqueous buffer): 620 µg/mL (≈ 2600 µM)
solubility (water): 160 µg/mL (≈ 672 µM)
SMILES: O=C1CN(N=Cc2ccc([N+](=O)[O-])o2)C(=O)N1 [Macrocrystals, 1-[[[5-nitro-2-furanyl]methylene]amino]-2,4-imidazolidinedione]
